Laboratory results reported in patent publication US9167818B2, “Active compounds combinations comprising prothioconazole and fluxapyroxad” (BAYER CROPSCIENCE AG, priority 2010, dated 2015).

System: Alternaria solani
Test: Alternaria test (tomatoes) / preventive
Format: in vivo, Alternaria solani on tomatoes
Conditions: single active, preventive spray, evaluated 3 days after inoculation
Description: The expected activity for a given combination of two active compounds can be calculated as follows (cf. Colby, S. R., “Calculating Synergistic and Antagonistic Responses of Herbicide Combinations”, Weeds 1967, 15, 20-22): If • X is the efficacy when active compound A is applied at an application rate of m ppm (or g/ha), • Y is the efficacy when active compound B is applied at an application rate of n ppm (or g/ha), • E is the efficacy when the active compounds A and B are applied at application rates of m and n ppm (or g/ha), respectively, and then
The degree of efficacy, expressed in % is denoted. 0% means an efficacy which corresponds to that of the control while an efficacy of 100% means that no disease is observed.
If the actual fungicidal activity exceeds the calculated value, then the activity of the combination is superadditive, i.e. a synergistic effect exists. In this case, the efficacy which was actually observed must be greater than the value for the expected efficacy (E) calculated from the abovementioned formula.
To produce a suitable preparation of active compound, 1 part by weight of active compound is mixed with the stated amounts of solvent and emulsifier, and the concentrate is diluted with water to the desired concentration. To test for preventive activity, young plants are sprayed with the preparation of active compound at the stated rate of application. After the spray coating has dried on, the plants are inoculated with an aqueous spore suspension of Alternaria solani. The plants are then placed in an incubation cabinet at approximately 20° C. and a relative atmospheric humidity of 100%. The test is evaluated 3 days after the inoculation. 0% means an efficacy which corresponds to that of the untreated control while an efficacy of 100% means that no disease is observed.

Row | Structure (SMILES) | Efficacy in % found (application rate 0.5 ppm a.i.) | Efficacy in % found (application rate 1 ppm a.i.) | Efficacy in % found (application rate 2 ppm a.i.) | Efficacy in % found (application rate 0.25 ppm a.i.)
1 | Fc1ccc([C@]2(Cn3cncn3)O[C@H]2c2ccccc2Cl)cc1 (racemic) [Epoxiconazole, epoxiconazole] | 41% | 53% | 59% | 
2 | OC(Cc1ccccc1Cl)(Cn1[nH]cnc1=S)C1(Cl)CC1 (stereo not drawn) [(A) Prothioconazole, 2-[2-(1-chlorocyclopropyl)-3-(2-chlorophenyl)-2-hydroxypropyl]-1,2-dihydro-3H-1,2,4-triazole-3-thione] | 0% | 18% | 41% | 
3 | Cn1cc(C(=O)Nc2ccccc2-c2cc(F)c(F)c(F)c2)c(C(F)F)n1 [(B) Fluxapyroxad, 3-(difluoromethyl)-1-methyl-N-(3′,4′,5′-trifluorobiphenyl-2-yl)pyrazole-4-carboxamide] | 65% | 87% |  | 62%
